Results from patent publication US8048919B2, “Use of ethyl lactate as an excipient for pharmaceutical compositions” (Archer Daniels Midland Company, priority 2004, dated 2011).

Assay: Resistance of high purity ethyl lactate to peroxide formation in air (Quantofix test paper)
Type: physicochemical
Conditions: for level of peroxide: 250 ml ethyl lactate + 0.3 g agent, stirred in air
Experimental: In the procedure used, 250 ml of high purity ethyl lactate containing 0.0 ppm of peroxide as measured with Quantofix™ test paper was added to each of four beakers. The first beaker served as a control and was not treated with any chemical agent. The second beaker was treated with 0.3 g of BHT. The third beaker was treated with 0.3 g of cysteine and the fourth beaker was treated with 0.3 g of methionine. […] The level of peroxide in each of the ethyl lactate samples was monitored and is reported as a function of time in Table 2.

Row | level of peroxide (time 0 minutes) [ppm] | level of peroxide (time 15 minutes) [ppm] | level of peroxide (time 30 minutes) [ppm] | level of peroxide (time 60 minutes) [ppm] | level of peroxide (time 75 minutes) | level of peroxide (time 90 minutes) | level of peroxide (time 105 minutes) [ppm] | level of peroxide (time 120 minutes) [ppm] | level of peroxide (time 150 minutes) [ppm] | level of peroxide (time 180 minutes) [ppm] | level of peroxide (time 240 minutes) | level of peroxide (time 300 minutes) [ppm] | level of peroxide (time 360 minutes) [ppm] | level of peroxide (time 1440 minutes) | effectiveness as stabilizer against peroxide generation (compared with the other compounds evaluated) | Gardner color rating (ethyl lactate stabilized with BHT, throughout the trial period) | SMILES
1 | 0.0 | 0.0 | 0.0 | 0.0 | 0.0 ppm | 0.0 ppm | 0.0 | 0.0 | 0.0 | 0.0 | 0.0 ppm | 0.0 | 0.0 | 0.0 ppm | most effective | 1 | Cc1cc(C(C)(C)C)c(O)c(C(C)(C)C)c1 [BHT, butylated hydroxyl toluene]
2 | 0.0 | 0.0 | 0.0 | 0.0 | 0.0 ppm | 0.0 ppm | 0.0 | 0.0 | 0.0 | 0.0 | 0.0 ppm | 0.0 | 0.0 | 0.0-0.5 ppm | – | – | N[C@@H](CS)C(=O)O [Cysteine, cysteine]
3 | 0.0 | 0.0 | 0.0 | 0.5 | 0.5-2.0 ppm | 0.5-2.0 ppm | 2.0 | 2.0 | 2.0 | 5.0 | 2.0-5.0 ppm | 5.0 | 5.0 | 5.0 ppm | – | – | CSCC[C@H](N)C(=O)O [Methionine, methionine]
